We go through 13 compounds from patent US20260193264A1, “BENZOYPARAZINE PYRAZINES AND THEIR USES” (FOGHORN THERAPEUTICS INC., priority 2022, published 2026).

Experiment [1] addresses T1, HiBit-BRG1 fusion protein in stable HeLa cell line expressing HiBit-BRG1 and LgBit (Homo sapiens, UniProt P51532).
T1 construct: expressed in transfected cells
As to the kind of experiment: HiBiT-BRG1 cell-based degradation assay (Nano-Glo HiBiT, 24 h). The settings on record: HeLa HiBit-BRG1/LgBit cells; for DC50: read-out: BRMG1 HiBit Degradation IC50; for Dmax: top dose 30 μM, read-out: BRG1 HiBit Degradation Maximum (%). An outline of the steps: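 Degradation calculated from NanoBiT luminescence relative to DMSO-treated cells (high) and cells given 2 μM known BRM/BRG1 degrader (low). HeLa cells stably expressing HiBiT-BRG1 plus LgBiT were exposed to compound for 24 h before lytic HiBiT detection.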
(The HiBiT peptide binds its large partner to form an active luciferase.)

In experiment [2] the target is T2, HiBiT-BRM fusion protein in stable HeLa cell line (Homo sapiens, UniProt P51531).
T2 construct: expressed in transfected cells
The experiment is described as follows: HiBiT-BRM cell-based degradation assay (Nano-Glo HiBiT Lytic Detection, 24 h). Further details: DC50: scale not given here. Conditions: HeLa HiBiT-BRM cells; for DC50: read-out: BRM HiBit Degradation IC50; for BRM HiBit Degradation Maximum (%): top dose 30 μM. An outline of the steps:
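Percent degradation was scaled between DMSO-treated cells and cells given 2 μM of a known BRM/BRG1 degrader. Readout was NanoBiT luminescence after lytic detection. HeLa cells stably expressing HiBiT-BRM were dosed for 24 h, 10 points, 3-fold steps from 30 μM final, in duplicate.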

T2 sequence (P51531 whole entry, the tested form may be a part): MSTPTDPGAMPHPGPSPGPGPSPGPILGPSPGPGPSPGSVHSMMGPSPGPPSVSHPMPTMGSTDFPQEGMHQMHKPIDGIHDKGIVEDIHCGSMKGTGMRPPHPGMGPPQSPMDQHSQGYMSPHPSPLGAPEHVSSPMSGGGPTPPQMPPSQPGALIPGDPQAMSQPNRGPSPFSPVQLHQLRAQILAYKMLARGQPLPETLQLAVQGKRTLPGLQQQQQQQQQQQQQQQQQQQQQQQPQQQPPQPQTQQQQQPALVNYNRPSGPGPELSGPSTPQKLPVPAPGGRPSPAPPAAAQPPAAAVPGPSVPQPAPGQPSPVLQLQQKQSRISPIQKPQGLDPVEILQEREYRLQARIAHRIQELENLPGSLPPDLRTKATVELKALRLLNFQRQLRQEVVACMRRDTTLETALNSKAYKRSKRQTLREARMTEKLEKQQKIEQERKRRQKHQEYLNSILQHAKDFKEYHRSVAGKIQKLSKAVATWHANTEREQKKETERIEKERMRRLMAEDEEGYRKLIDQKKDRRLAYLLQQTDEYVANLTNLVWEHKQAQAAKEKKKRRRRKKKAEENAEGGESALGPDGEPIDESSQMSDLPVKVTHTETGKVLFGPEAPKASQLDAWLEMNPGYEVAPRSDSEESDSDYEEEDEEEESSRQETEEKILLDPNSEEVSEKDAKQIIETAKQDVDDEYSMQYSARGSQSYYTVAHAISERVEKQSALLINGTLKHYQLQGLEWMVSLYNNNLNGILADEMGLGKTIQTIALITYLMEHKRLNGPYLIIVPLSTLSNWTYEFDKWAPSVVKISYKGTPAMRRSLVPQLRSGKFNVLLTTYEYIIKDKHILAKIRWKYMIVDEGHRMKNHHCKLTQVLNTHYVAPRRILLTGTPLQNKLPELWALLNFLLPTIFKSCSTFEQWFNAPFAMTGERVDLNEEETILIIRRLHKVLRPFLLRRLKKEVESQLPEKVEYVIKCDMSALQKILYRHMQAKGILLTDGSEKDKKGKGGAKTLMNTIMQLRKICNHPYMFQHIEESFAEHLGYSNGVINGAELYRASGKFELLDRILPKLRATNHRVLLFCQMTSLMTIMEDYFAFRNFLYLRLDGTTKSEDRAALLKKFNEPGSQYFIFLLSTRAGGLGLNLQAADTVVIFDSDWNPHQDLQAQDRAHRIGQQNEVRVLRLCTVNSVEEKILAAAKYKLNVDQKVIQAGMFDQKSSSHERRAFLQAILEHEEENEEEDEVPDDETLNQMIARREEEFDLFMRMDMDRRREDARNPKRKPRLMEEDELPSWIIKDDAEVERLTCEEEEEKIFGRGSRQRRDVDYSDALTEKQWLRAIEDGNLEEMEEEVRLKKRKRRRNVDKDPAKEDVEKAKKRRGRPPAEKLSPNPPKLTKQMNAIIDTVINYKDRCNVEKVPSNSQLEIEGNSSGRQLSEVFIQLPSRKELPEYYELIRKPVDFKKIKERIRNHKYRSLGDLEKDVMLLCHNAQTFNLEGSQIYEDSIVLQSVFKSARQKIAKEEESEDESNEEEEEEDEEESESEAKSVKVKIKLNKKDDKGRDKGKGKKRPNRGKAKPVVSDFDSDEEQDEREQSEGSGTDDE
T1 sequence (P51532 whole entry, the tested form may be a part): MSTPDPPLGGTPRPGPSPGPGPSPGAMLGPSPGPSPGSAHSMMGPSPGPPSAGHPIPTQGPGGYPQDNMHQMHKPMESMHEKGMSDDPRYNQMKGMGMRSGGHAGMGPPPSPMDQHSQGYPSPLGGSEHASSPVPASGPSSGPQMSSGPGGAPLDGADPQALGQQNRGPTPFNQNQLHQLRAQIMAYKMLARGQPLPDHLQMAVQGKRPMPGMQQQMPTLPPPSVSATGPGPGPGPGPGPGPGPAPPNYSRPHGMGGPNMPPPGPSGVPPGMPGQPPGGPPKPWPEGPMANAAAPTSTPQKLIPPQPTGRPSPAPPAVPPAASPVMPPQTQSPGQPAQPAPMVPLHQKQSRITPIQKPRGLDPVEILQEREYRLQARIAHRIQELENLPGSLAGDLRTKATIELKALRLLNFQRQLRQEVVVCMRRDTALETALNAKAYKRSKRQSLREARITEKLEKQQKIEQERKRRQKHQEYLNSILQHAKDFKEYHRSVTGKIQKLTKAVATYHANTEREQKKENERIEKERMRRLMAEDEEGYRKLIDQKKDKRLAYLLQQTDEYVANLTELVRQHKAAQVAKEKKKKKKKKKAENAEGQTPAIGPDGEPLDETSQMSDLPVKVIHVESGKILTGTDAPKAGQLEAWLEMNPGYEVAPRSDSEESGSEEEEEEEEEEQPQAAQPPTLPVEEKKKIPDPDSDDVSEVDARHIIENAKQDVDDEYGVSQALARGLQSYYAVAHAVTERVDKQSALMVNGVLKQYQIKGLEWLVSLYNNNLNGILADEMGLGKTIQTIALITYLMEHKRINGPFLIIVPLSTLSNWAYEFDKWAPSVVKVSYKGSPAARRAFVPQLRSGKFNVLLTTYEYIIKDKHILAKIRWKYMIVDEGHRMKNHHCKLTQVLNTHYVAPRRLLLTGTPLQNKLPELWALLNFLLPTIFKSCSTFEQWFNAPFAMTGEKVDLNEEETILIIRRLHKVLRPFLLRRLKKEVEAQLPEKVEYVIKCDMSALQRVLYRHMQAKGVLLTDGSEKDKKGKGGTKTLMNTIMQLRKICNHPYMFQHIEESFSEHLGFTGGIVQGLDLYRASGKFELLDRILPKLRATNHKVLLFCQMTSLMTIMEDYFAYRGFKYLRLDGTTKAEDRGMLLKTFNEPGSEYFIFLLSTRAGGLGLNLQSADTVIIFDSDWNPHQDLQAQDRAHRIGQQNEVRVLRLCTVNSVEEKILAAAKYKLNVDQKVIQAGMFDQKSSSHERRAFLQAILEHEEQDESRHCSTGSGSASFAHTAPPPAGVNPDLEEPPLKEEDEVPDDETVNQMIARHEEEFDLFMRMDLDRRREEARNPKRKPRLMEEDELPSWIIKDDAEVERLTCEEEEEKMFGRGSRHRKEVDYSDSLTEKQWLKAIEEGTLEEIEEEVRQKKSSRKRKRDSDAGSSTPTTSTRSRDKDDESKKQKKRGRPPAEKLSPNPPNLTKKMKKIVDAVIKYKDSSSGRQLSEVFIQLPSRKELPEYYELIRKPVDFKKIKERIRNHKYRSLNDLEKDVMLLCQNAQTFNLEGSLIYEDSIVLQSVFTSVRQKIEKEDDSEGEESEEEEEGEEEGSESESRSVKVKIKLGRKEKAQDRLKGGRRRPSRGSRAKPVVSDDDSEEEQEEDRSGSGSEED

With `Cc1ncsc1-c1ccc([C@H](C)NC(=O)[C@@H]2C[C@@H](O)CN2C(=O)[C@@H](c2cc(N3CC4(C3)CN(c3cc5nnc(-c6ccccc6O)cc5cc3Cl)C4)no2)C(C)C)cc1` [Compound 157, (2S,4R)-1-((R)-2-(3-(6-(6-chloro-3-(2-hydroxyphenyl)cinnolin-7-yl)-2,6-diazaspiro[3.3]heptan-2-yl)isoxazol-5-yl)-3-methylbutanoyl)-4-hydroxy-N-((S)-1-(4-(4-methylthiazol-5-yl)phenyl)ethyl)pyrrolidine-2-carboxamide], in experiment [1], the DC50 is less than 0.01 µM and the Dmax is greater than 50%. Also, in experiment [2], the DC50 is less than 0.01 µM and the “BRM HiBit Degradation Maximum (%)” value is on record as “A (“A” indicates maximum degradation ≥75%)”.

Regarding `COc1cc2nnc(-c3ccccc3O)cc2cc1N1CC2(CN(c3cc([C@H](C(=O)N4C[C@H](O)C[C@H]4C(=O)N[C@@H](C)c4ccc(-c5scnc5C)cc4)C(C)C)on3)C2)C1` [Compound 158, (2S,4R)-4-hydroxy-1-((R)-2-(3-(6-(3-(2-hydroxyphenyl)-7-methoxycinnolin-6-yl)-2,6-diazaspiro[3.3]heptan-2-yl)isoxazol-5-yl)-3-methylbutanoyl)-N-((S)-1-(4-(4-methylthiazol-5-yl)phenyl)ethyl)pyrrolidine-2-carboxamide], in experiment [1], the DC50 is less than 0.01 µM and the Dmax was greater than 75%. Further, in experiment [2], the DC50 was less than 0.01 µM and the “BRM HiBit Degradation Maximum (%)” value is listed as “A (“A” indicates maximum degradation ≥75%)”.

In the case of `COc1cc2cc(-c3ccccc3O)nnc2cc1N1CC2(CN(c3cc([C@H](C(=O)N4C[C@H](O)C[C@H]4C(=O)N[C@@H](C)c4ccc(-c5scnc5C)cc4)C(C)C)on3)C2)C1` [Compound 159, (2S,4R)-4-hydroxy-1-((R)-2-(3-(6-(3-(2-hydroxyphenyl)-6-methoxycinnolin-7-yl)-2,6-diazaspiro[3.3]heptan-2-yl)isoxazol-5-yl)-3-methylbutanoyl)-N-((S)-1-(4-(4-methylthiazol-5-yl)phenyl)ethyl)pyrrolidine-2-carboxamide], in experiment [1], the DC50 is less than 0.01 µM and the Dmax was greater than 75%. For the same compound, in experiment [2], the DC50 is less than 0.01 µM and the “BRM HiBit Degradation Maximum (%)” value was “A (“A” indicates maximum degradation ≥75%)”.

Consider `Cc1ncsc1-c1ccc([C@H](C)NC(=O)[C@@H]2C[C@@H](O)CN2C(=O)[C@@H](c2ccnc(N3CC4(CN(c5ccc6nnc(-c7ccccc7O)cc6c5)C4)C3)c2)C(C)C)cc1` [Compound 160, (2S,4R)-4-hydroxy-1-[(2R)-2-(2-{6-[3-(2-hydroxyphenyl)cinnolin-6-yl]-2,6-diazaspiro[3.3]heptan-2-yl}pyridin-4-yl)-3-methylbutanoyl]-N-[(1S)-1-[4-(4-methyl-1,3-thiazol-5-yl)phenyl]ethyl]pyrrolidine-2-carboxamide], for which the Dmax in experiment [1] was less than 50%. Moreover, the “BRM HiBit Degradation Maximum (%)” value in experiment [2] was “B (“B” indicates maximum degradation ≥50%)”.

For the compound `Cc1ncsc1-c1ccc([C@H](C)NC(=O)[C@@H]2C[C@@H](O)CN2C(=O)[C@@H](c2cc(N3CCOC4(CN(c5ccc6cc(-c7ccccc7O)nnc6c5)C4)C3)no2)C(C)C)cc1` [Compound 162, (2S,4R)-4-hydroxy-1-((R)-2-(3-(2-(3-(2-hydroxyphenyl)cinnolin-7-yl)-5-oxa-2,8-diazaspiro[3.5]nonan-8-yl)isoxazol-5-yl)-3-methylbutanoyl)-N-((S)-1-(4-(4-methylthiazol-5-yl)phenyl)ethyl)pyrrolidine-2-carboxamide], in experiment [1], the DC50 is less than 0.01 µM and the Dmax is greater than 75%. In addition, in experiment [2], the DC50 is less than 0.01 µM and the “BRM HiBit Degradation Maximum (%)” value was “A (“A” indicates maximum degradation ≥75%)”.

Turning to `Cc1ncsc1-c1ccc([C@H](C)NC(=O)[C@@H]2C[C@@H](O)CN2C(=O)[C@@H](c2cc(N3CC4(CN(c5cc(Cl)c6cc(-c7ccccc7O)nnc6c5)C4)C3)no2)C(C)C)cc1` [Compound 163, (2S,4R)-1-((R)-2-(3-(6-(5-chloro-3-(2-hydroxyphenyl)cinnolin-7-yl)-2,6-diazaspiro[3.3]heptan-2-yl)isoxazol-5-yl)-3-methylbutanoyl)-4-hydroxy-N-((S)-1-(4-(4-methylthiazol-5-yl)phenyl)ethyl)pyrrolidine-2-carboxamide], in experiment [1], the Dmax is less than 50%. In experiment [2], the DC50 is less than 0.01 µM and the “BRM HiBit Degradation Maximum (%)” value is on record as “A (“A” indicates maximum degradation ≥75%)”.

With `Cc1ncsc1-c1ccc([C@H](C)NC(=O)[C@@H]2C[C@@H](O)CN2C(=O)[C@@H](c2cc(N3CC4(C3)CN(c3cc5cc(-c6ccccc6O)nnc5cc3C(F)F)C4)no2)C(C)C)cc1` [Compound 164, (2S,4R)-1-((R)-2-(3-(6-(7-(difluoromethyl)-3-(2-hydroxyphenyl)cinnolin-6-yl)-2,6-diazaspiro[3.3]heptan-2-yl)isoxazol-5-yl)-3-methylbutanoyl)-4-hydroxy-N-((S)-1-(4-(4-methylthiazol-5-yl)phenyl)ethyl)pyrrolidine-2-carboxamide], in experiment [1], the DC50 was less than 0.01 µM and the Dmax was greater than 75%. In experiment [2], the DC50 is less than 0.01 µM and the “BRM HiBit Degradation Maximum (%)” value is recorded as “A (“A” indicates maximum degradation ≥75%)”.

For `Cc1ncsc1-c1ccc([C@H](C)NC(=O)[C@@H]2C[C@@H](O)CN2C(=O)[C@@H](c2cc(N3CCC4(CC3)CN(c3ccc5nnc(-c6ccccc6O)cc5c3)CCN4C)no2)C(C)C)cc1` [Compound 165, (2S,4R)-4-hydroxy-1-((R)-2-(3-(4-(3-(2-hydroxyphenyl)cinnolin-6-yl)-1-methyl-1,4,9-triazaspiro[5.5]undecan-9-yl)isoxazol-5-yl)-3-methylbutanoyl)-N-((S)-1-(4-(4-methylthiazol-5-yl)phenyl)ethyl)pyrrolidine-2-carboxamide], in experiment [1], the DC50 is less than 0.01 µM and the Dmax was greater than 75%. In experiment [2], the DC50 is less than 0.01 µM and the “BRM HiBit Degradation Maximum (%)” value is reported as “A (“A” indicates maximum degradation ≥75%)”.

Turning to `Cc1ncsc1-c1ccc([C@H](C)NC(=O)[C@@H]2C[C@@H](O)CN2C(=O)[C@@H](c2cc(N3CCCC4(CN(c5ccc6nnc(-c7ccccc7O)cc6c5)C4)C3)no2)C(C)C)cc1` [Compound 166, (2S,4R)-4-hydroxy-1-((R)-2-(3-(2-(3-(2-hydroxyphenyl)cinnolin-6-yl)-2,6-diazaspiro[3.5]nonan-6-yl)isoxazol-5-yl)-3-methylbutanoyl)-N-((S)-1-(4-(4-methylthiazol-5-yl)phenyl)ethyl)pyrrolidine-2-carboxamide], in experiment [1], the DC50 is greater than 0.01 µM and the Dmax was greater than 75%. Besides, in experiment [2], the DC50 was less than 0.01 µM and the “BRM HiBit Degradation Maximum (%)” value is “A (“A” indicates maximum degradation ≥75%)”.

Consider `Cc1ncsc1-c1ccc([C@H](C)NC(=O)[C@@H]2C[C@@H](O)CN2C(=O)[C@@H](c2cc(N3CC4(C3)CN(c3cc5nnc(-c6ccccc6O)cc5cc3C#N)C4)no2)C(C)C)cc1` [Compound 167, (2S,4R)-1-((R)-2-(3-(6-(6-cyano-3-(2-hydroxyphenyl)cinnolin-7-yl)-2,6-diazaspiro[3.3]heptan-2-yl)isoxazol-5-yl)-3-methylbutanoyl)-4-hydroxy-N-((S)-1-(4-(4-methylthiazol-5-yl)phenyl)ethyl)pyrrolidine-2-carboxamide], for which, in experiment [1], the Dmax was less than 50%. In experiment [2], the DC50 was less than 0.01 µM and the “BRM HiBit Degradation Maximum (%)” value is given as “A (“A” indicates maximum degradation ≥75%)”.

As for `Cc1ncsc1-c1ccc([C@H](C)NC(=O)[C@@H]2C[C@@H](O)CN2C(=O)[C@@H](c2cc(N3CC4(C3)CN(c3cc5nnc(-c6ccccc6O)cc5cc3C(F)F)C4)no2)C(C)C)cc1` [Compound 168, (2S,4R)-1-((R)-2-(3-(6-(6-(difluoromethyl)-3-(2-hydroxyphenyl)cinnolin-7-yl)-2,6-diazaspiro[3.3]heptan-2-yl)isoxazol-5-yl)-3-methylbutanoyl)-4-hydroxy-N-((S)-1-(4-(4-methylthiazol-5-yl)phenyl)ethyl)pyrrolidine-2-carboxamide], in experiment [1], the DC50 is less than 0.01 µM and the Dmax is greater than 50%. Besides, in experiment [2], the DC50 was less than 0.01 µM and the “BRM HiBit Degradation Maximum (%)” value is “A (“A” indicates maximum degradation ≥75%)”.

As to `Cc1ncsc1-c1ccc([C@H](C)NC(=O)[C@@H]2C[C@@H](O)CN2C(=O)[C@H](C(C)C)n2cc(N3CC4(CN(c5ccc6cc(-c7ccccc7O)nnc6c5)C4)C3)nn2)cc1` [Compound 169, (2S,4R)-4-hydroxy-1-((S)-2-(4-(6-(3-(2-hydroxyphenyl)cinnolin-7-yl)-2,6-diazaspiro[3.3]heptan-2-yl)-1H-1,2,3-triazol-1-yl)-3-methylbutanoyl)-N-((S)-1-(4-(4-methylthiazol-5-yl)phenyl)ethyl)pyrrolidine-2-carboxamide], in experiment [1], the DC50 is less than 0.01 µM and the Dmax is greater than 50%. Also, in experiment [2], the DC50 is less than 0.01 µM and the “BRM HiBit Degradation Maximum (%)” value is given as “A (“A” indicates maximum degradation ≥75%)”.

As for `Cc1ncsc1-c1ccc([C@H](C)NC(=O)[C@@H]2C[C@@H](O)CN2C(=O)[C@H](C(C)C)n2cc(-c3cc4cc(-c5ccccc5O)nnc4cc3C#N)nn2)cc1` [Compound 170, (2S,4R)-1-[(2S)-2-{4-[7-cyano-3-(2-hydroxyphenyl)cinnolin-6-yl]-1,2,3-triazol-1-yl}-3-methylbutanoyl]-4-hydroxy-N-[(1S)-1-[4-(4-methyl-1,3-thiazol-5-yl)phenyl]ethyl]pyrrolidine-2-carboxamide], in experiment [1], the Dmax was less than 50%. Moreover, in experiment [2], the DC50 is greater than 0.01 µM and the “BRM HiBit Degradation Maximum (%)” value is recorded as “B (“B” indicates maximum degradation ≥50%)”.
